Assay [1] addresses Tyrosine-protein kinase Lck (Homo sapiens, UniProt P06239). In words: Binding affinity to human LCK by KINOMEscan assay.
Assay [2] has as its target Serine/threonine-protein kinase SIK1 (Homo sapiens, UniProt P57059). Briefly: Inhibition of human SIK1 (02 to 131) assessed as luminescence signal using AMARAtide/ATP as substrate measured after 120 mins by microplate reader.
The target in assay [3] is Serine/threonine-protein kinase SIK2 (Homo sapiens, UniProt Q9H0K1). Briefly: Inhibition of recombinant full length human SIK2 assessed as luminescence signal using AMARAtide/ATP as substrate measured after 120 mins by microplate reader.
Serine/threonine-protein kinase SIK2, sequence (Q9H0K1 whole entry): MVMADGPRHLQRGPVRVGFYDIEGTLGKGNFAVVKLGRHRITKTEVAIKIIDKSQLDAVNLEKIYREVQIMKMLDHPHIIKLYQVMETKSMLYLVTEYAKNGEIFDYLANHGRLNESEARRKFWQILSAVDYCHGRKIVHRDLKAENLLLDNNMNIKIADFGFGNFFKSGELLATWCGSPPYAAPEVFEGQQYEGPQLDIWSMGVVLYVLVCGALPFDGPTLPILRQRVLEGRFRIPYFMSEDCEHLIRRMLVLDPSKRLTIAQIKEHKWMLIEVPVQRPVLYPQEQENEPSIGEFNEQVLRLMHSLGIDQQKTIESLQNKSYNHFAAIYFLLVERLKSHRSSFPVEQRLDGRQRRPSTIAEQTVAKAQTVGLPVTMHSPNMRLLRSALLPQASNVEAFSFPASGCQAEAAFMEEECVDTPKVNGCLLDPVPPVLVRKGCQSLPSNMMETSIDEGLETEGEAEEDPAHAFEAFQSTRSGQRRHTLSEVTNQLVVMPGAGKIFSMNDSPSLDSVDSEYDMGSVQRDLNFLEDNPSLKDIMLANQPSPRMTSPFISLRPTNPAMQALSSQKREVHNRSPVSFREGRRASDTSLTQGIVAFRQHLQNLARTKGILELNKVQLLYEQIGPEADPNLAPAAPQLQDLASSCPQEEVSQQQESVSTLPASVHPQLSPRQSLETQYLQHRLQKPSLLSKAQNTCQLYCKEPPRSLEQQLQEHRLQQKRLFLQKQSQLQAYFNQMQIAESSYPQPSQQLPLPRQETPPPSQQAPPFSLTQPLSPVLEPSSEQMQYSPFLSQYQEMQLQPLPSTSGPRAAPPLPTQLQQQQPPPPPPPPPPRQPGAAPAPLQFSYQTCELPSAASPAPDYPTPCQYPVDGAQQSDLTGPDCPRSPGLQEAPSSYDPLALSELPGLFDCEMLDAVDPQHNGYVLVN
Assay [4] concerns the target Serine/threonine-protein kinase SIK3 (Homo sapiens, UniProt Q9Y2K2). Briefly: Inhibition of recombinant human SIK3 assessed as luminescence signal using AMARAtide/ATP as substrate measured after 120 mins by microplate reader.
Assay [5] is described as follows: Binding affinity to human ABL by KINOMEscan assay.

As usually defined, the IC50 is the midpoint of a concentration-inhibition curve.

Serine/threonine-protein kinase SIK1, sequence (P57059 whole entry): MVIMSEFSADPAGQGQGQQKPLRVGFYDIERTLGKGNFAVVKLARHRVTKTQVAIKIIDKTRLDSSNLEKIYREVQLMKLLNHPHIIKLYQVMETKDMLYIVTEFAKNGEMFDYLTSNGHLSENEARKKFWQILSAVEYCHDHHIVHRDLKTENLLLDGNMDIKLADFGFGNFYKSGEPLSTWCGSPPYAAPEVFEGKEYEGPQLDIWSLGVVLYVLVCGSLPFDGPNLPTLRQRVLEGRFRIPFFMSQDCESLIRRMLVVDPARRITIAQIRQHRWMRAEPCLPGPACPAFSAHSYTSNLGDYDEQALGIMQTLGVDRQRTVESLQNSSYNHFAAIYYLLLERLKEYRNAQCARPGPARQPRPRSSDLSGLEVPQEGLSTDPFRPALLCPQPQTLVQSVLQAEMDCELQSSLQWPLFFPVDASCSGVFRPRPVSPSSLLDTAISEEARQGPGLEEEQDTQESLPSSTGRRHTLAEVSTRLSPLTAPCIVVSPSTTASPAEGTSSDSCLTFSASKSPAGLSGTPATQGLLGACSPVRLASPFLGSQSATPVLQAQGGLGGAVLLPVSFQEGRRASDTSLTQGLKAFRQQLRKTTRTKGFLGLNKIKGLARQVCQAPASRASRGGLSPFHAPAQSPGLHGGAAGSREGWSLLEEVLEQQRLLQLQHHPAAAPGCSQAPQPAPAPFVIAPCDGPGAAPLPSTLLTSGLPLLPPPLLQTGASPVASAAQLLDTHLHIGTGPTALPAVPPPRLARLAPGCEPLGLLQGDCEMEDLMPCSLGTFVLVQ
Serine/threonine-protein kinase SIK3, sequence (Q9Y2K2 whole entry): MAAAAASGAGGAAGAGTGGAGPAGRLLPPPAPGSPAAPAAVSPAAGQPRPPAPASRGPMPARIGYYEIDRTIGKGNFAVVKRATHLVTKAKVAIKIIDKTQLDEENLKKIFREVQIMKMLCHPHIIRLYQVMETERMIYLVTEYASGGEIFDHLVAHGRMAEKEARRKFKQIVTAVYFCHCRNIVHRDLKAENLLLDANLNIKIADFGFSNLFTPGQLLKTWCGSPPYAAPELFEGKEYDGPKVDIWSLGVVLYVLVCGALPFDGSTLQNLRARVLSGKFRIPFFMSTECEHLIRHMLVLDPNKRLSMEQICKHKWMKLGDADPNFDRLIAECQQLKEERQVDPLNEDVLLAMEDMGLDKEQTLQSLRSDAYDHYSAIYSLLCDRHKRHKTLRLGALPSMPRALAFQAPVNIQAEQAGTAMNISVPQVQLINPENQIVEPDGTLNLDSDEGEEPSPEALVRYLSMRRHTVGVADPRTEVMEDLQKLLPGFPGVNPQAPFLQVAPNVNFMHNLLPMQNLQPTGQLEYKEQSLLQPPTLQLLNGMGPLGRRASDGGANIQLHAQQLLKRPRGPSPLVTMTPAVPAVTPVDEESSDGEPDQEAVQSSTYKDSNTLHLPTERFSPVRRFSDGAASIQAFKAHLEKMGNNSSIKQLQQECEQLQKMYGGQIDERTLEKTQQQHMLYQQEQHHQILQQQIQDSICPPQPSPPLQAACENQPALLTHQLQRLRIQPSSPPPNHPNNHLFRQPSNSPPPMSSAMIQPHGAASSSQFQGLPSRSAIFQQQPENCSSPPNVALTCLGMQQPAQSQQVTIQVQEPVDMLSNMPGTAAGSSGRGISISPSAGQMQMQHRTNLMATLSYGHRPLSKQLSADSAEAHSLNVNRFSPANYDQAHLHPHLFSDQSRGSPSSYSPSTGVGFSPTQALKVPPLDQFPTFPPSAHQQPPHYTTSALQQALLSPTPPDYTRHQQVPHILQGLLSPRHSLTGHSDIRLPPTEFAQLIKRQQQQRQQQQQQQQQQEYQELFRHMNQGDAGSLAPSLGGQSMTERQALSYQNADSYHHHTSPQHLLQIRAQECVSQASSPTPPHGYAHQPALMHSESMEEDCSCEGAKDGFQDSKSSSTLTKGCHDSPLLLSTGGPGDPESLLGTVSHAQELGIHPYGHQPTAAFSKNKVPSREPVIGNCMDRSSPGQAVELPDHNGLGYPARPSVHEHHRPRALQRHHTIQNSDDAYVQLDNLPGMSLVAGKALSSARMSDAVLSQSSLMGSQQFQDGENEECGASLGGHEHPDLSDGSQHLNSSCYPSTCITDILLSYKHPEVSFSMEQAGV
Tyrosine-protein kinase Lck, sequence (P06239 whole entry): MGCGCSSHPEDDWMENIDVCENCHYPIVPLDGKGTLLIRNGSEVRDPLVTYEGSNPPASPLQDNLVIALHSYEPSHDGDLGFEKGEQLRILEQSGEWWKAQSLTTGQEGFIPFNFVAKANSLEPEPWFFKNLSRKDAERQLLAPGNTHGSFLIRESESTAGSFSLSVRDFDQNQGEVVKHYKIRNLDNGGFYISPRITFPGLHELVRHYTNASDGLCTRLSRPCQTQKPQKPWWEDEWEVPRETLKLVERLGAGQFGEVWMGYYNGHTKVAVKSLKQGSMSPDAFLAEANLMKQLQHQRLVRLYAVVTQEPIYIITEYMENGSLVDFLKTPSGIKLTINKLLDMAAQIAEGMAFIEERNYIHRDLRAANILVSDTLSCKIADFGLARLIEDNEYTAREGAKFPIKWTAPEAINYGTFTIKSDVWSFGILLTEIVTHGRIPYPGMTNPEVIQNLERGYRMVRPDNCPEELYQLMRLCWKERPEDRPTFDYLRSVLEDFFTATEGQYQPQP

In the case of `Cc1cc(-c2cc(O)ccc2Cl)cc2nnc(Nc3ccc(OCCN4CCCC4)cc3)nc12`, the IC50 in assay [1] was determined as 2.7 nM.
As to `COc1cc(-c2cc(-c3cnn(C4CCOCC4)c3)cnc2N)cc2c1C(=O)N(CC#N)CC2`, the 50% inhibitory concentration (IC50) in assay [2] worked out at 118 nM; in assay [3], 4.9 nM; in assay [4], 5.7 nM.
For `COc1cc(-c2cc(-c3cnn(S(C)(=O)=O)c3)cnc2N)cc2c1C(=O)N(CC(F)(F)F)CC2`, the IC50 in assay [3] stood at 39 nM.
In turn, `CNC(=O)c1cc(Oc2ccc(NC(=O)Nc3cc(C(C)(C)C)nn3-c3ccc4ncccc4c3)c(F)c2)ccn1` [REBASTINIB] gave a half-maximal inhibitory concentration (IC50) in assay [5] of 26.8 nM.

For the origin of these results see ChEMBL document CHEMBL6109120, “Discovery of Novel SIK2/3 Inhibitors for the Potential Treatment of MEF2C+ Acute Myeloid Leukemia (AML)” (J Med Chem, 2025).
